Results from patent publication US20030225007A1, “Sulfonamide derivatives of 3-substituted imidazol[1,2-d]-1,2,4-thiadiazoles and 3-substituted-[1,2,4] thiadiazolo[4,5-a] benzimidazole as inhibitors of fibrin cross-linking and transglutaminases” (Apotex Inc., priority 2002, published 2003).

Target: T1, Factor XIIIa (activated FXIII) (Homo sapiens, UniProt P00488)
T1 construct: purchased Enzyme Research Laboratories, Ltd
T1 sequence (P00488 39-732 limits assumed): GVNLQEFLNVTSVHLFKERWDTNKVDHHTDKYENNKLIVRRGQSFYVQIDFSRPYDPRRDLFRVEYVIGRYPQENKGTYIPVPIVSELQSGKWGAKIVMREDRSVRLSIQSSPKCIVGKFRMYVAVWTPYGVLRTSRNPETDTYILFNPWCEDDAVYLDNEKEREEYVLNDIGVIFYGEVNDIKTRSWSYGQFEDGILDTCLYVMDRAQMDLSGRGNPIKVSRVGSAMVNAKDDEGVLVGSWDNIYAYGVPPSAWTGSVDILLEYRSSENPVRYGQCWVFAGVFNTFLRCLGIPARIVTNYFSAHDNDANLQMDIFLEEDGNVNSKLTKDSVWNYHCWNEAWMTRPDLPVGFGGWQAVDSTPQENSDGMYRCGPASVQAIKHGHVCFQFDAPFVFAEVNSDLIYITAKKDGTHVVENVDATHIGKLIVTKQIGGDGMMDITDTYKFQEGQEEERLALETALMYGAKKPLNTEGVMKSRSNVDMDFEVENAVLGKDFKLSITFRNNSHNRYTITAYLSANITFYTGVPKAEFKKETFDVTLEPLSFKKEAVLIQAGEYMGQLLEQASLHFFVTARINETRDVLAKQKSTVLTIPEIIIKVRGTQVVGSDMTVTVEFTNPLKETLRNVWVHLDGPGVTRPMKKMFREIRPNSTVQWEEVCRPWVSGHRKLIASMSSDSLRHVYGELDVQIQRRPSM
Test: Inactivation of purified Factor XIIIa (monodansylcadaverine incorporation into dimethylcasein, fluorescence)
Assay type: biochemical
Settings: for IC50: purified activated FXIII, 50% enzyme inactivation after 5-min incubation with inhibitor at 37° C. in the absence of substrate, read-out: FXIIIa (IC50 in μM)
Protocol: FXIII (0.5 mg/mL, Enzyme Research Laboratories, Ltd.) in 50 mM Tris-HCl pH 7.5 containing 100 mM NaCl, 40 mM CaCl2, 1 mM EDTA and 0.1% poly(ethylene glycol) (app. MW=8000) was activated by incubation with 10 NIH units/mL of human thrombin (Calbiochem) at 37° C. for 20 min. Thrombin was quenched with 20 NIH units/mL of hirudin from Leech (Sigma).
Inhibitor solution in DMSO (14 μL) was added to 120 μL of 250 mM Tris-Cl pH 7.5 containing 40 mM CaCl2 and 1 mM EDTA and the solution was incubated at 37° C. for two minutes. Activated FXIII (5 μL, 0.5 mg/mL) was added and the mixture was incubated at 37° C. for 5 min.
An assay mixture composed of 50 mM Tris-Cl pH 8.0, 10 mM CaCl2, 1 mM EDTA, 0.1% poly(ethylene glycol) (app. MW=1000) and 20 μM monodansylcadaverine was prepared in a spectrofluorometric cell in a final volume of 2880 μL. Dimethylcasein (8 μL, 1% in 50 mM sodium phosphate pH 7.5) was added and the solution was incubated at 37° C. for a few minutes. To assay the residual enzyme activity, 120 μL of the solution containing the enzyme and the inhibitor was transferred to the assay mixture. The covalent incorporation of monodansylcadaverine into casein was monitored by an increase in fluorescence at λexc=360 nm and λem=500 nm as previously described (Curtis, C. G.; Lorand, L. Methods Enzymol. 1976, 45, 177-191). To determine uninhibited enzyme activity, DMSO was used in place of inhibitor solution in the above assay. IC50 were determined by plotting the percent of remaining enzyme activity against logarithm of inhibitor concentration. IC50 is defined here as an inhibitor concentration resulting in 50% enzyme inactivation after 5-min incubation of the enzyme with the inhibitor in the absence of the substrate. Second order rate constants for inactivation were determined using method described by Kitz and Wilson (Kitz, R.; Wilson, I. J. Biol. Chem. 1962, 237, 3245).

Structure (SMILES) | IC50 [µM] | kinact/KI (purified Factor XIIIa, method of Kitz and Wilson, read-out: Second order rate constant for inactivation) [M⁻¹ s⁻¹]
Cc1cc(S(=O)(=O)NCCCCCCNc2nsc3nccn23)c(C)cc1Cl [2-Me-4-C1-5-Me-Ph, 4-chloro-2,5-dimethyl-N-[6-(imidazol[1,2-d][1,2,4]thiadiazol-3-ylamino)hexyl]benzenesulfonamide] | 0.95 | –
O=[N+]([O-])c1cc(C(F)(F)F)ccc1S(=O)(=O)NCCCCCCNc1nsc2nccn12 [2-NO2-4-CF3-Ph, N-[6-(imidazo[1,2-d][1,2,4]thiadiazol-3-ylamino)hexyl]-2-nitro-4-trifluorobenzenesulfonamide] | 0.77 | –
O=S(=O)(NCCCCCCNc1nsc2nccn12)c1ccc(Br)cc1OC(F)(F)F [2-OCF3-4-Br, 4-bromo-N-[6-(imidazo[1,2-d][1,2,4]thiadiazol-3-ylamino)hexyl]-2-(trifluoromethoxy)benzenesulfonamide] | 0.42 | –
COc1cc(C)ccc1S(=O)(=O)NCCCCCCNc1nsc2nccn12 [2-OMe-4-Me-Ph, N-[6-(imidazol[1,2-d][1,2,4]thiadiazol-3-ylamino)hexyl]-2-methoxy-4-methylbenzenesulfonamide] | 24 | –
COc1ccc(Br)cc1S(=O)(=O)NCCCCCCNc1nsc2nccn12 [2-OMe-5-Br-Ph, 5-bromo--N-[6-(imidazo[1,2-d][1,2,4]thiadiazol-3-ylamino)hexyl]-2-methoxybenzenesulfonamide] | 3.7 | –
COc1ccc(OC)c(S(=O)(=O)NCCCCCCNc2nsc3nccn23)c1 [2-OMe-5-Ome-Ph, 2,5-dimethoxy-N-[6-(imidazo[1,2-d][1,2,4]thiadiazol-3-ylamino)hexyl]benzenesulfonamide] | > 5 | –
O=S(=O)(NCCCCCCNc1nsc2nccn12)c1ccc2ccccc2c1 [2-naphthyl, N-[6-(imidazo[1,2-d][1,2,4]thiadiazol-3-ylamino)hexyl]naphthalene-2-sulfonamide] | 1.3 | –
NC(=O)CCCN(CCCCCCNc1nsc2nccn12)S(=O)(=O)c1cccc2ccccc12 [3 / NH2 / 1-naphthyl, 4-[[6-(imidazo[1,2-d][1,2,4]thiadiazol-3-ylamino)hexyl](1-naphthylsulfonyl)amino]butanamide] | 8.6 | –
O=S(=O)(NCCCCCCNc1nsc2nccn12)c1cccc(C(F)(F)F)c1 [3-CF3-Ph, N-[6-(imidazo[1,2-d][1,2,4]thiadiazol-3-ylamino)hexyl]-3-trifluoromethylbenzenesulfonamide] | 4.7 | –
O=C(O)c1cccc(S(=O)(=O)NCCCCCCNc2nsc3nccn23)c1 [3-COOH-Ph, 3-carboxy-N-[6-(imidazo[1,2-d][1,2,4]thiadiazol-3-ylamino)hexyl]benzenesulfonamide] | 13.7 | –
O=S(=O)(NCCCCCCNc1nsc2nccn12)c1ccc(Br)cc1 [4-Br-Ph, 4-bromo-N-[6-(imidazo[1,2-d][1,2,4]thiadiazol-3-ylamino)hexyl]benzenesulfonamide] | 0.93 | –
N#Cc1ccc(S(=O)(=O)NCCCCCCNc2nsc3nccn23)cc1 [4-CN-Ph, 4-cyano-N-[6-(imidazo[1,2-d][1,2,4]thiadiazol-3-ylamino)hexyl]benzenesulfonamide] | 1.6 | –
O=C(O)c1ccc(S(=O)(=O)NCCCCCCNc2nsc3nccn23)cc1 [4-COOH-Ph, 4-carboxy-N-[6-(imidazo[1,2-d][1,2,4]thiadiazol-3-ylamino)hexyl]benzenesulfonamide] | 11.4 | –
COc1ccc(S(=O)(=O)NCCCCCCNc2nsc3nccn23)cc1 [4-OMe-Ph, N-[6-(imidazo[1,2-d][1,2,4]thiadiazol-3-ylamino)hexyl]-4-methoxybenzenesulfonamide] | 1.4 | –
O=S(=O)(NCCCCCCNc1nsc2nccn12)c1ccc(-c2ccccc2)cc1 [4-Ph-Ph, N-[6-(imidazo[1,2-d][1,2,4]thiadiazol-3-ylamino)hexyl]-4-phenylbenzenesulfonamide] | 1.3 | –
Cc1ccc(S(=O)(=O)N[C@@H](CCCCNc2nsc3nccn23)C(=O)N2CCN(Cc3ccccc3)CC2)cc1 [4-benzyl-{N^ε-imidazo[1,2-d][1,2,4]thiadiazol-3-yl-N^α-[(4-methylphenyl)sulfonyl]lysyl}piperazine] | 6.5 | –
O=C(O)CCCCCN(CCCCCCNc1nsc2nccn12)S(=O)(=O)c1ccc(F)cc1F [5 / OH / 2-F-4-F-Ph, 6-{[(2,4-difluorophenyl)sulfonyl][6-(imidazo[1,2-d][1,2,4]thiadiazol-3-ylamino)hexyl]amino}hexanoic acid] | 6.8 | –
CN(CCCCCCN(C)S(=O)(=O)c1ccccc1[N+](=O)[O-])c1nsc2nccn12 [CH3 / CH3 / 2-NO2-Ph, N-{6-[imidazo[1,2-d][1,2,4]thiadiazol-3-yl(methyl)amino]hexyl}-N-methyl-2-nitrobenzenesulfonamide] | 0.6 | –
CN(CCCCCCNc1nsc2nccn12)S(=O)(=O)c1cccc2ccccc12 [CH3 / H / 1-naphthyl, N-[6-(imidazo[1,2-d][1,2,4]thiadiazol-3-ylamino)hexyl]-N-methylnaphthalene-1-sulfonamide] | 2.4 | –
CN(CCCCCCNc1nsc2nccn12)S(=O)(=O)c1ccccc1[N+](=O)[O-] [CH3 / H / 2-NO2-Ph, N-[6-(Imidazo[1,2-d][1,2,4]thiadiazol-3-ylamino)hexyl]-N-methyl-2-nitro benzene sulfonamide] | 1.3 | –
COC(=O)CN(CCCCCCNS(=O)(=O)c1ccccc1[N+](=O)[O-])c1nsc2nccn12 [H / CH2COOMe / 2-NO2-Ph, methyl N-imidazo[1,2-d][1,2,4]thiadiazol-3-yl-N-(6-{[(2-nitrophenyl)sulfonyl]amino}hexyl)glycinate] | 0.88 | –
Cc1ccc(S(=O)(=O)N[C@@H](CCCCNc2nsc3nccn23)C(=O)NCc2ccc(F)cc2)cc1 [N-(4-fluorobenzyl)-N^ε-imidazo[1,2-d][1,2,4]thiadiazol-3-yl-N^α-[(4-methylphenyl)sulfonyl]lysinamide] | 6.7 | –
O=[N+]([O-])c1ccc(NCCCCCCNc2nsc3nccn23)c([N+](=O)[O-])c1 [N^1-(2,4-dinitrophenyl)-N^6-imidazo[1,2-d][1,2,4]thiadiazol-3-ylhexane-1,6-diamine] | – | 8900
O=S(=O)(NCCCCCCNc1nsc2nccn12)c1cccc2cccnc12 [Quinoline-8-, N-[6-(imidazo[1,2-d][1,2,4]thiadiazol-3-ylamino)hexyl]quinoline-8-sulfonamide] | 2.6 | –
Cc1ccc(S(=O)(=O)NC(CCCCNc2nsc3nccn23)C(N)=O)cc1 (stereo not drawn) [—CH(CONH2)—NH— / 4-Me-Ph] | 9.1 | –
Cc1ccc(S(=O)(=O)N[C@@H](CCCCNc2nsc3nccn23)C(=O)O)cc1 [—CH(COOH)—NH— / 4-Me-Ph, N^ε-imidazo[1,2-d][1,2,4]thiadiazol-3-yl-N^α-[(4-methylphenyl)sulfonyl]lysine] | 6.7 | –
COC(=O)[C@H](CCCCNc1nsc2nccn12)NS(=O)(=O)c1ccc(C)cc1 [—CH(COOMe)—NH— / 4-Me-Ph, methyl N^ε-imidazo[1,2-d][1,2,4]thiadiazol-3-yl-N^α-[(4-methylphenyl)sulfonyl]lysinate] | 7 | –
